Measurements: patent US6495544B2, “Homoiminopiperidinyl hexanoic acid inhibitors of inducible nitric oxide synthase” (Pharmacia Corporation, priority 2000, dated 2002)

Experiments:
hncNOS = molecular target: T1, hncNOS (Homo sapiens, UniProt P29475); experiment: Assay for time dependent inhibition, hncNOS; format: biochemical; settings: 60 min preincubation
T1 construct: made in house; host or cells: Sf9 insect cells, baculovirus vector
Procedure: (§1) Nitric oxide synthase (NOS) activity is measured by monitoring the conversion of [^3H]-arginine to [^3H]-citrulline (Bredt and Snyder, Proc. Natl. Acad. Sci. U.S.A., 87, 682-685, 1990 and Misko et al, Eur. J. Pharm., 233, 119-125, 1993). Human inducible NOS (hiNOS), human endothelial constitutive NOS (hecNOS) and human neuronal constitutive NOS (hncNOS) are each cloned from RNA extracted from human tissue. The cDNA for human inducible NOS (hiNOS) is isolated from a lambda cDNA library made from RNA extracted from a colon sample from a patient with ulcerative colitis. The cDNA for human endothelial constitutive NOS (hecNOS) is isolated from a lambda cDNA library made from RNA extracted from human umbilical vein endothelial cells (HUVEC) and the cDNA for human neuronal constitutive NOS (hncNOS) is isolated from a lambda cDNA library made from RNA extracted from human cerebellum obtained from a cadaver. The recombinant enzymes are expressed in Sf9 insect cells using a baculovirus vector (Rodi et al, in The Biology of Nitric Oxide , Pt. 4: Enzymology Biochemistry and Immunology; Moncada, S., Feelisch, M., Busse, R., Higgs, E., Eds.; Portland Press Ltd.: London, 1995; pp 447-450). Enzyme activity is isolated from soluble cell extracts and partially purified by DEAE-Sepharose chromatography. To measure NOS activity, 10 μL of enzyme is added to 40 μL of 50 mM Tris (pH 7.6) in the presence or absence of test compounds and the reaction initiated by the addition of 50 μL of a reaction mixture containing 5 mM Tris (pH 7.6), 2.0 mg/mL bovine serum albumin, 2.0 mM DTT, 4.0 mM CaCl2, 20 μM FAD, 100 PM tetrahydrobiopterin, 0.4-2.0 mM NADPH and 60 μM L-arginine containing 0.9 μCi of L-[2,3-^3H]-arginine. The final concentration of L-arginine in the assay is 30 μM. For hecNOS or hncNOS, calmodulin is included at a final concentration of 40-100 nM. […] [3H]-Citrulline is separated by chromatography on Dowex 50W X-8 cation exchange resin and radioactivity determined with a liquid scintillation counter. […]

[1] = molecular target: T2, human neuronal constitutive NOS (hncNOS) (Homo sapiens, UniProt P29475); experiment: Citrulline assay for nitric oxide synthase, hncNOS; format: biochemical; settings: 30 μM L-arginine, 37° C., 15 minutes, calmodulin
T2 construct: made in house; host or cells: Sf9 insect cells, baculovirus vector
Procedure: as §1

hecNOS = molecular target: T3, hecNOS (Homo sapiens, UniProt P29474); experiment: Assay for time dependent inhibition, hecNOS; format: biochemical; settings: 60 min preincubation, read-out: % inhibition of NOS activity, hecNOS
T3 construct: made in house; host or cells: Sf9 insect cells, baculovirus vector
Procedure: as §1, with “447-450).” for “447-450). Enzyme activity is isolated from soluble cell extracts and partially purified by DEAE-Sepharose chromatography. To measure NOS activity, 10 μL of enzyme is added to 40 μL of 50 mM Tris (pH 7.6) in the presence or absence of test compounds and the reaction initiated by the addition of 50 μL of a reaction mixture containing 5 mM Tris (pH 7.6), 2.0 mg/mL bovine serum albumin, 2.0 mM DTT, 4.0 mM CaCl2, 20 μM FAD, 100 PM tetrahydrobiopterin, 0.4-2.0 mM NADPH and 60 μM L-arginine containing 0.9 μCi of L-[2,3-^3H]-arginine. The final concentration of L-arginine in the assay is 30 μM. For hecNOS or hncNOS, calmodulin is included at a final concentration of 40-100 nM.”

[2] = test system: inducible nitric oxide synthase; experiment: In vivo assay, endotoxin-treated rats, plasma nitrite/nitrate; settings: oral; for ED50: Rattus norvegicus, read-out: ED50, inhibition of LPS-induced increase in plasma nitrite/nitrate
Procedure: Compounds are administered orally 0.5-1 hours prior to LPS administration and plasma nitrite/nitrate levels are determined 5 hours following LPS administration.

[3] = test system: nitric oxide synthase induced by recombinant human IL-1β in human cartilage explants; experiment: Human cartilage explant assay, nitrite production; format: cell-based; settings: IL-1β stimulated, read-out: IC50, inhibition of nitrite production
Procedure: Bone pieces are rinsed twice with Dulbecco's Phosphate Buffered Saline (GibcoBRL) and once with Dulbecco's Modified Eagles Medium (GibcoBRL) and placed into a petri dish with phenol red free Minimum Essential Medium (MEM) (GibcoBRL). Cartilage was cut into small explants of approximately 25-45 mg in weight and one or two explants per well are placed into 48 well culture plates with 500 μL of culture media per well. The culture media was either a custom modification of Minimum Essential Medium(Eagle) with Earle's salts (GibcoBRL) prepared without L-Arginine, without L-Glutamine and without phenol red or a custom modification of serumless Neuman and Tytell (GibcoBRL) medium prepared without L-arginine, without insulin, without ascorbic acid, without L-glutamine and without phenol red. Both are supplemented before use with 100 μM L-Arginine (Sigma), 2 mM L-glutamine, 1×HL-1 supplement (BioWhittaker), […] ascorbic acid (Sigma) and 150 pg/ml recombinant human IL-1β (RD Systems) to induce nitric oxide synthase. Compounds are then added in 10 μL aliquots and the explants incubated at 37° C. with 5% CO2 for 18-24 hours. […] This supernatant is analyzed for nitrite with a fluorometric assay (Misko et al, Anal. Biochem., 214, 11-16, 1993). […] IC50 values (Table III) are determined from plotting the percent inhibition of nitrite production at six different concentrations of inhibitor.

[4] = molecular target: T4, Human inducible NOS (hiNOS) (Homo sapiens, UniProt P35228); experiment: Citrulline assay for nitric oxide synthase, hiNOS; format: biochemical; settings: 30 μM L-arginine, 37° C., 15 minutes
T4 construct: made in house; host or cells: Sf9 insect cells, baculovirus vector
Procedure: as §1

[5] = molecular target: T5, human endothelial constitutive NOS (hecNOS) (Homo sapiens, UniProt P29474); experiment: Citrulline assay for nitric oxide synthase, hecNOS; format: biochemical; settings: 30 μM L-arginine, 37° C., 15 minutes, calmodulin
T5 construct: made in house; host or cells: Sf9 insect cells, baculovirus vector
Procedure: as §1

[6] = 0.5-1 hours prior to LPS, plasma 5 hours after LPS

T1 sequence (P29475 whole entry): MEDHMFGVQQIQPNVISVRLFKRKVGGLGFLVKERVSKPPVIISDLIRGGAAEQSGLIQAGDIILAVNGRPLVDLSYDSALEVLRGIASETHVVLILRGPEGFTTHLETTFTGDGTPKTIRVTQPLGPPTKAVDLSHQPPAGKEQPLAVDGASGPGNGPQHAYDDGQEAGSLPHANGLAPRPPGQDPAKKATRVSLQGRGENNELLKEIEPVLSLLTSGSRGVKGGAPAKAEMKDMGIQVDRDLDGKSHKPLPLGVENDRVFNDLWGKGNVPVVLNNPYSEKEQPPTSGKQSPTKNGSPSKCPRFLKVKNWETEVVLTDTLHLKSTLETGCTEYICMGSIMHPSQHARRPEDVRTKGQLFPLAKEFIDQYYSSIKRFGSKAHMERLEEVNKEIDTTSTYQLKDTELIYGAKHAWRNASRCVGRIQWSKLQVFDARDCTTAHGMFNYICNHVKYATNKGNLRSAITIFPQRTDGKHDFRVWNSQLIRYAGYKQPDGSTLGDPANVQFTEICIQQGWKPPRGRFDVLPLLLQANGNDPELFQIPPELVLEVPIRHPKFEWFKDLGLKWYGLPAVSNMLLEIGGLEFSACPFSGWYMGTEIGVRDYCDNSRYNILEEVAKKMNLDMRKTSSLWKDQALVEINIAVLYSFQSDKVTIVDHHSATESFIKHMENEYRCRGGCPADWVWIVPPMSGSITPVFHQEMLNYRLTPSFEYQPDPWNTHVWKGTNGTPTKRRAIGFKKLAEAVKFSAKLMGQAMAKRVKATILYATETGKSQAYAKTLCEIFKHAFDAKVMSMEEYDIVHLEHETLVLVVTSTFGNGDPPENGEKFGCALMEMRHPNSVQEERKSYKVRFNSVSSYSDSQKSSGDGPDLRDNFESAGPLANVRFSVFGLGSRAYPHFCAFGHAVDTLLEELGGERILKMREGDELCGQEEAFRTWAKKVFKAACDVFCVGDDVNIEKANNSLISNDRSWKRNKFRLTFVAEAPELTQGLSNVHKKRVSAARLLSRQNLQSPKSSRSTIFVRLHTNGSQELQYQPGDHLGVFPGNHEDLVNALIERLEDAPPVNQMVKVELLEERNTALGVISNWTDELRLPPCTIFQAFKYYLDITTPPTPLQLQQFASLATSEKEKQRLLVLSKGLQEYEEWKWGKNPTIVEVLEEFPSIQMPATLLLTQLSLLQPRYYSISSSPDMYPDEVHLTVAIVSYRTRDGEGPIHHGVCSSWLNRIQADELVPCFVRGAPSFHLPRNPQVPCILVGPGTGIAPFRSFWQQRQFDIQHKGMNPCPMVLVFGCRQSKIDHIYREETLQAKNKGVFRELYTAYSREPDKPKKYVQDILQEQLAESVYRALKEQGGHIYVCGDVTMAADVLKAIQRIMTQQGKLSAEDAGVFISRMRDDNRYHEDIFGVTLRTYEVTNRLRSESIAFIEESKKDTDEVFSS
T3 sequence (P29474 2-1203): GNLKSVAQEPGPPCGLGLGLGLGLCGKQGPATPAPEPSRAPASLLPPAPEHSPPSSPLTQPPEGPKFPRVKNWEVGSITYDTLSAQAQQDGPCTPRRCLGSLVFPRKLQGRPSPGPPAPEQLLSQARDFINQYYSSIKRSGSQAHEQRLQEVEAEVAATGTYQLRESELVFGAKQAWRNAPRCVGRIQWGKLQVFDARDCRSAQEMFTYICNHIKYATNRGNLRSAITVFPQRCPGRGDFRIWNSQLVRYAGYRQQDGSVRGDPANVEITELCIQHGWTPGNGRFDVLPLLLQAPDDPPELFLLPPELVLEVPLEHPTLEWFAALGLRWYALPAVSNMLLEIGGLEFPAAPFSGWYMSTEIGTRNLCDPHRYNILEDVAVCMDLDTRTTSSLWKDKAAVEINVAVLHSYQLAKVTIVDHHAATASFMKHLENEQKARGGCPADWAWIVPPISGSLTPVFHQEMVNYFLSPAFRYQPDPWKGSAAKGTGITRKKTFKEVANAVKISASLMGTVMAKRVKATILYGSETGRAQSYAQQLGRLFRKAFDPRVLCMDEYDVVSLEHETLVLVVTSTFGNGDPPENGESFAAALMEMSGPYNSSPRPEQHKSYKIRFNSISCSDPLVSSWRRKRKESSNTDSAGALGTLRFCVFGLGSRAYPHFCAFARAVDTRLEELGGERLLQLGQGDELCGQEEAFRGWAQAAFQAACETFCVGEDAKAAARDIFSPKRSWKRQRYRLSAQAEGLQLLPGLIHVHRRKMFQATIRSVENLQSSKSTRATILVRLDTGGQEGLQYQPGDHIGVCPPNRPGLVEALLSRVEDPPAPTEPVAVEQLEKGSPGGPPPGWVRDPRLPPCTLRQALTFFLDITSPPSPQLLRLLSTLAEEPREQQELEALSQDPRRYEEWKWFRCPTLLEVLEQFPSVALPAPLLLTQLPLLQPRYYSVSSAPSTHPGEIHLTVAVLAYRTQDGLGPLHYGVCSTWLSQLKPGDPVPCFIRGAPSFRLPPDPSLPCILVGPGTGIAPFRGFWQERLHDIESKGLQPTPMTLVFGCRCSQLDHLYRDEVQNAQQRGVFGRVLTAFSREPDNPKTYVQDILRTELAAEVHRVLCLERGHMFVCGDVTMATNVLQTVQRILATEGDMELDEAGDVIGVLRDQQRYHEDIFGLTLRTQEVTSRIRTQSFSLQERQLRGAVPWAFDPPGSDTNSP

Cl.N=C1CCCC[C@H](CCCC[C@@H](N)C(=O)O)N1.O.O.O [Example 1, (αR,2S)-α-aminohexahydro-7-imino-1H-azepine-2-hexanoic acid, trihydrate hydrochloride] was tested, and the “% inhibition of NOS activity, hncNOS” value (hncNOS; 5 μM) was 0% @ 5 μM @ 60 min, the IC50 [1] was over 3 µM and the inhibition at 33 µM (hecNOS) was 11%. For the same molecule, the ED50 [2, 6] was under 3 mg/kg, the “effect on LPS-induced increase in plasma nitrite/nitrate levels” value [2] was “inhibited the LPS-induced increase in plasma nitrite/nitrate levels in a dose dependent manner” and the “ED50, inhibition of LPS-induced increase in plasma nitrite/nitrate” value ([2]; 0.5-1 hours prior to LPS, plasma 5 hours after LPS, trihydrate hydrochloride) was under 3 mg/kg. For the same molecule, the IC50 [3] was under 10 µM, the IC50 [4] was under 3 µM and the IC50 [5] was over 30 µM.

Cl.N=C1CCCC[C@@H](CCCC[C@H](N)C(=O)O)N1.O.O.O [Example 2, (αS,2R)-α-aminohexahydro-7-imino-1H-azepine-2-hexanoic acid, trihydrate hydrochloride] was tested, and the “% inhibition of NOS activity, hncNOS” value (hncNOS; 13 μM) was 0% @ 13 μM @ 60 min, the IC50 [1] was over 10 µM and the IC50 [4] was under 5 µM. The IC50 [5] was over 150 µM.

Cl.N=C1CCCC[C@H](CCCC[C@H](N)C(=O)O)N1.O.O.O [Example 4, (αS,2S)-α-aminohexahydro-7-imino-1H-azepine-2-hexanoic acid, trihydrate hydrochloride] was tested, and the “% inhibition of NOS activity, hncNOS” value (hncNOS; 3 μM) was 0% @ 3 μM @ 60 min, the IC50 [1] was over 3 µM and the ED50 [2, 6] was under 5 mg/kg. The IC50 [3] was under 10 µM, the IC50 [4] was under 3 µM and the IC50 [5] was over 15 µM.
